{"source": "patent US11896589B2", "about": "“Diazinyl amino acridines and medical uses thereof” (MyCural Therapeutics AB, priority 2018, dated 2024)", "key": {"[1]": {"biological_target": "T1, MYCbHLHZip (Homo sapiens, UniProt P01106)", "T1 construct": "An amino coupling procedure was used to immobilize MYCbHLHZip protein on a CM5 sensor chip", "T1 sequence (P01106 368-449 limits assumed)": "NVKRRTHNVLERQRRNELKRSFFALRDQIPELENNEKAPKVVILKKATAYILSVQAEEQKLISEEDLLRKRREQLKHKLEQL", "experiment": "Assay 2A MYC binding MST assay", "settings": "approximately 200 nM labelled MYC, compound titrated", "description": "FIG. 2: A) MST assay of Example 1 effect on MYC and MAX, respectively. Recombinant MYC bHLHZip and MAX bHLHZip proteins were titrated, respectively, in a fixed concentration (3 μM) of Example 1. Changes in fluorescence were measured and normalized to control (buffer). Data are shown as mean±standard deviation of 6-8 biological repeats. B) MST assay of MYC (reverse MST). A fixed concentration of 200 nM labeled MYC was mixed with different concentrations of Example 1 as indicated. Data are shown as mean±standard deviation of 5 biological repeats. C) MST assay of Example 2 effect on MYC. D) MST assay of MYC with a control compound (non-binder).\nAssay 2A. MYC Binding MST Assay\nThe MYC MST assay was performed as described above (Biological example 1—Assay 1A), except that the fluorescent molecule was either protein or Example 1. The example compound was kept at a fix concentration of 3 μM in PBS supplemented with 0.05% Tween-20, while MYCbHLHZip or MAX was titrated. The migration of example compound changed at MYC protein concentrations above 1 μM, but was unaffected with MAX up to highest concentration tested (15 μM) (FIG. 2A). […]"}, "[2]": {"system": "human MYCN-amplified SK-N-DZ neuroblastoma xenograft tumors", "experiment": "In vivo mouse xenograft tumor model", "settings": "20 mg/kg i.p. daily, 1-2 weeks", "description": "SK-N-DZ MYCN-amplified neuroblastoma xenograft tumors reaching a volume of 100-200 mm^3 were treated with Example 1 (20 mg/kg body weight) or vehicle injected i.p. daily for 1-2 weeks. A) Apoptosis was determined by TUNEL staining of tumor tissues from mice treated with Example 1 or vehicle, counterstained with DAPI. Quantification of TUNEL staining was normalized to whole tumor areas as determined by DAPI from three Example 1- and three vehicle-treated mice. Student's t-test of Example 1 vs. vehicle; p=0.0083. B) Cell proliferation determined by Ki67 of tumor tissues from mice treated with Example 1 or vehicle, respectively, and counterstained with DAPI. Quantification of Ki67 negative areas normalized to whole tumor areas by DAPI from three Example 1- and three vehicle-treated mice. Student's t-test of Example 1 vs. vehicle; p=0.0380. C) Microvascular density visualized by CD31 staining in the red. C) Quantification of CD31 staining normalized to whole tumor areas from three Example 1- and three vehicle-treated mice. Student's t-test of Example 1 vs. vehicle; p=0.014. D) Detection of MYCN:MAX protein interaction by isPLA performed on tumor tissue from mice treated with Example 1 or vehicle using antibodies against MYCN and MAX. Quantification of MYCN:MAX isPLA signals in tumor tissue from Example 1- and vehicle-treated mice, presented as average number of dots from four randomly chosen microscopic fields from Example 1 treated mice normalized to corresponding values from vehicle-treated mice (F=28.102, P=0.008). E) Apoptosis determined from TUNEL stained tumor section derived from a MDA-MB231 xenograft mouse treated with Example 2 for 2 weeks. Quantification of apoptotic cells per counted field.\nTo validate the efficacy of Example 1 in tumor tissue in vivo, we utilized a mouse xenograft tumor model based on human MYCN-amplified SK-N-DZ neuroblastoma cells. Tumor cells (5×10^6) were injected into the flank of athymic nude mice and allowed to form tumors after which Example 1 or vehicle were administered by daily intraperitoneal injection at a dose of 20 mg/kg body weight for 1-2 weeks."}}}
{"smiles": "CCOc1ccc2nc3cc(/N=N/c4ccc(N)nc4N)ccc3c(N)c2c1", "note": "[Example 1, 3-((9-amino-7-ethoxyacridin-3-yl)diazenyl)pyridine-2,6-diamine sulphate hydrate]", "values": [{"measurement": "compound concentration affecting migration of MYC (reverse MST)", "setting": "[1]", "value": "200 to 400", "unit": "nM"}, {"measurement": "CD31 Decrease in microvascular density", "setting": "[2]", "value": "44 % of vehicle"}, {"measurement": "Ki67 Increase in Ki67-negative tumor area relative to vehicle", "setting": "[2]", "value": 550, "unit": "%"}, {"measurement": "MYCN:MAX interactions in tumors (isPLA) vs vehicle", "setting": "[2]", "value": "significant reduction"}, {"measurement": "MYCN:MAX isPLA signal relative to vehicle", "setting": "[2]", "value": "66 % of vehicle"}, {"measurement": "TUNEL Increase in apoptotic tumor area relative to vehicle", "setting": "[2]", "value": 1420, "unit": "%"}, {"measurement": "apoptotic tumor areas (TUNEL) vs vehicle", "setting": "[2]", "value": "dramatic increase"}, {"measurement": "microvascular density (CD31) vs vehicle", "setting": "[2]", "value": "significantly reduced"}, {"measurement": "non-proliferative areas (Ki67) vs vehicle", "setting": "[2]", "value": "significant increase"}]}
